Patent US8975280B2, “Deoxynojirimycin and D-arabinitol analogs and methods of using” (The Chancellor, Masters and Scholars of The University of …, priority 2006, dated 2015)

Target: T1, glucosidase I (Homo sapiens, UniProt Q13724)
T1 construct: endogenous in cells; host or cells: HL60 cells
T1 sequence (Q13724 1-837): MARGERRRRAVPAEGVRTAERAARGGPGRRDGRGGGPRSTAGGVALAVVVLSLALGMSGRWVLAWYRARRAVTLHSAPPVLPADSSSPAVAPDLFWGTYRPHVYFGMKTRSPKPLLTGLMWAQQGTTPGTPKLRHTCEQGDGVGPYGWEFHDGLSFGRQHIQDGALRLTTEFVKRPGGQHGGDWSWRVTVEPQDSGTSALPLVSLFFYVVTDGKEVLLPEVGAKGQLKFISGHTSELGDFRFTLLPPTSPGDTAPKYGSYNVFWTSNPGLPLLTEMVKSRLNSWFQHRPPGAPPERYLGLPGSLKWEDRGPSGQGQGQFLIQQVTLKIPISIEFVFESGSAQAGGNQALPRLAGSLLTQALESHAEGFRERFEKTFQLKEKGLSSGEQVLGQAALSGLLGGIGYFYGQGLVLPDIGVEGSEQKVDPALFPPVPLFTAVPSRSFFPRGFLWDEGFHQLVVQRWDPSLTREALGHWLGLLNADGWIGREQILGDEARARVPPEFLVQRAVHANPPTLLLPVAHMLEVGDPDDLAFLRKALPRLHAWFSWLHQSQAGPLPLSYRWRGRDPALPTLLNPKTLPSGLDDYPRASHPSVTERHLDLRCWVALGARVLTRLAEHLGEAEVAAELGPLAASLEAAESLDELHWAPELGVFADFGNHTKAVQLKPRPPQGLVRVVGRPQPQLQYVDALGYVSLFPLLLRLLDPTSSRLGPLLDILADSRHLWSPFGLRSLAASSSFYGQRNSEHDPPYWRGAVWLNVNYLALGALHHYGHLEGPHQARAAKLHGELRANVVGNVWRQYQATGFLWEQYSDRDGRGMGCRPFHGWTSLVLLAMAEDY
Experiment: Inhibition of glucosidase I in HL60 cells, free oligosaccharide (G3M5N) analysis by NP-HPLC
Format: cell-based
Set-up: concentration of maximal glucosidase I inhibition in cells: unit not given here
Settings: 24 h
Description: The effect of an ER-glucosidase inhibitor on cells was evaluated using an assay method by modifying known methods. (H. R. Mellor et al., Cellular Effects of Deoxynojirimycin Analogues: Inhibition of N-Linked Oligosaccharide Processing and Generation of Free Glucosylated Oligosaccharides, 381 Biochem. J. 867-875 (2004). The detection of free oligosaccharides following imino sugar treatment to generate misfolded protein that is degraded in the cytosol is an accurate measure of cell ER entry and inhibition of glycoprotein processing of α-glucosidases I and II by imino sugars.
Cells were cultured to high density (×10^7 cells/ml) prior to growth in fresh medium containing NB-DNJ at varying concentrations. The cells were seeded at a lower density so as to achieve a high density at the end of the incubation period. […] The conditions for extraction of FOS were determined to maximize recovery of FOS. […]
ConA-Sepharose purified 2-AA-labeled oligosaccharides were separated by NP-HPLC using a 4.6×250 mm TSKgel Amide-80 column (Anachem, Luton, UK) with slight modifications to known methods. (D. C. Neville, et al.) The chromatography system consisted of a Waters Alliance 2695 separations module and an in-line Waters 474 fluorescence detector set at an excitation wavelength of 360 nm and emission wavelength of 425 nm. […]

[N-]=[N+]=Nc1ccc(NCCCCCCN2C[C@H](O)[C@@H](O)[C@H](O)[C@H]2CO)c([N+](=O)[O-])c1 [NAP-DNJ, N—(N′-{4′azido-2′-nitrophenyl)-6-aminohexyl)-deoxynojirimycin]
concentration of maximal glucosidase I inhibition in cells (G3M5N): 50-100 ρM | more potent at inhibiting glucosidase I than NB-DNJ in cells (estimation of G3M5N): 20-50 times
